Laboratory results published in US20250140406A1, “CLASSIFYING TUMORS AND PREDICTING RESPONSIVENESS” (Oncocyte Corporation, priority 2022, published 2025).
Like-named read-outs stand apart in the source and are kept apart here.

Assays:
[1] = tested on: cancer cell lines classified IM, MSL, M; assay: PRISM screen compound sensitivity correlated with IM, MSL and M subtype of cell lines (101 gene signature); type: cell-based; details: for TNBCType train: 101 gene signature
[2] = tested on: cancer cell lines, DetermaIO classes; assay: Association of PRISM compound sensitivity with DetermaIO (DTIO) cell line classes; type: cell-based
[3] = correlation of PRISM compound sensitivity with IM subtype correlation, test cell set
[4] = correlation of PRISM compound sensitivity with M subtype correlation, test cell set
[5] = correlation of PRISM compound sensitivity with MSL subtype correlation, test cell set
[6] = correlation of PRISM compound sensitivity with DTIO; test cell set
[7] = correlation of PRISM compound sensitivity with DTIO; training cell set
[8] = correlation of PRISM compound sensitivity with IM subtype correlation, test cell set (188 cell lines)
[9] = correlation of PRISM compound sensitivity with M subtype correlation, test cell set (188 cell lines)
[10] = correlation of PRISM compound sensitivity with MSL subtype correlation, test cell set (188 cell lines)
[11] = correlation of PRISM compound sensitivity with DTIO (DetermaIO); test cell set (188 cell lines)
[12] = correlation of PRISM compound sensitivity with DTIO (DetermaIO); training cell set (371 cell lines)

SMILES | DTIO Corr test [2, 6] | DTIO Corr train [2, 7] | IM Corr test [1, 8] | M Corr test [1, 9] | MSL Corr test [1, 10] | DTIO Corr test [2, 11] | DTIO Corr train [2, 12] | also measured
CN(C)CCN1C(=O)c2cccc3cc(NC(N)=O)cc(c23)C1=O [UNBS-5162] | 0.09148 | 0.09844 |  |  |  |  |  | IM Corr test [1, 3]: 0.1623; M Corr test [1, 4]: −0.2029; MSL Corr test [1, 5]: −0.03433; DTIO Corr test ([2]; correlation of compound sensitivity with DetermaIO (DTIO); test set): 0.09148; DTIO Corr train ([2]; correlation of compound sensitivity with DetermaIO (DTIO); training set): 0.09844
COc1cc2c(NC3CCN(CC4CCCCC4)CC3)nc(N3CCCN(C(C)C)CC3)nc2cc1OCCCN1CCCCC1 [UNC0631] | 0.163 | 0.1055 | 0.2168 | −0.3256 | −0.09072 |  |  | DTIO Corr test ([2]; correlation of compound sensitivity with DetermaIO (DTIO), test set): 0.163; DTIO Corr train ([2]; correlation of compound sensitivity with DetermaIO (DTIO), training set): 0.1055
COc1cc2c(NC3CCN(C(C)C)CC3)nc(C3CCCCC3)nc2cc1OCCCN1CCCC1 [UNC0638] |  |  | −0.1264 | 0.1332 | 0.1697 | −0.08839 | −0.07586 | 
COc1ccc(CN2C(=O)C(=O)c3cc(OC(F)(F)F)ccc32)cc1 [VU0238429] | −0.02333 | −0.07773 |  |  |  |  |  | IM Corr test [1, 3]: 0.04415; M Corr test [1, 4]: −0.1868; MSL Corr test [1, 5]: −0.1511
Cc1cc(C)c(N(Cc2ccccc2)S(=O)(=O)c2ccc(OCCNC(=O)c3cc4ccccc4o3)cc2)c(C(=O)NO)c1 [WAY-170523] | 0.02955 | 0.0516 |  |  |  |  |  | IM Corr test [1, 3]: −0.0044; M Corr test [1, 4]: −0.01887; MSL Corr test [1, 5]: −0.04718; TNBCType train ([1]; subtype (IM, MSL or M) with which PRISM compound sensitivity is negatively correlated, training cell set): MSL
COc1cc2ncnc(Nc3ccc(O)c(Br)c3)c2cc1OC [WHI-P154] | −0.06543 | −0.1245 | −0.227 | 0.2466 | 0.2152 |  |  | 
C=CC(=O)Nc1cccc(Sc2nc(Nc3ccc(N4CCN(C)CC4)cc3)ncc2Cl)c1 [WZ8040] |  |  | −0.07504 | 0.1805 | 0.2895 | 0.0423 | −0.1387 | 
C[C@@H](N)c1ccc(C(=O)Nc2ccnc3[nH]ccc23)cc1 [Y-39983] |  |  | 0.05616 | −0.1022 | −0.1761 | −0.02374 | −0.00611 | 
Cc1cccc(NC(=O)N[C@@H]2N=C(c3ccccc3)c3ccccc3N(CC(=O)c3ccccc3C)C2=O)c1 [YM022] | −0.00858 | 0.03884 | −0.00497 | −0.05702 | −0.08788 |  |  | 
C[C@@H]1CN(Cc2ccc(F)cc2)CCN1C(=O)COc1ccc(Cl)cc1NC(N)=O.Cl [ZK811752] |  |  | 0.1095 | −0.08132 | −0.00448 | 0.04281 | 0.09953 | 
CC1(C)[C@@H](O[C@H]2O[C@H](C(=O)O)[C@@H](O)[C@H](O)[C@H]2O[C@@H]2O[C@H](C(=O)O)[C@@H](O)[C@H](O)[C@H]2O)CC[C@]2(C)[C@H]3C(=O)C=C4[C@@H]5C[C@@](C)(C(=O)O)CC[C@]5(C)CC[C@@]4(C)[C@]3(C)CC[C@@H]12 [ammonium-glycyrrhizinate] | −0.07896 | −0.06692 | −0.02605 | 0.0501 | 0.0971 |  |  | 
CC(=O)OC[C@]12CCC(C)=C[C@H]1O[C@@H]1[C@H](O)[C@@H](OC(C)=O)[C@@]2(C)[C@]12CO2 [anguidine] |  |  |  |  |  |  |  | IM Corr test [1]: −0.1066; M Corr test [1]: 0.09713; MSL Corr test [1]: 0.2083; DTIO Corr test [2]: −0.124; DTIO Corr train [2]: −0.1638
O=C1C(=O)N(Cc2ccc(Cl)c(Cl)c2)c2ccccc21 [apoptosis-activator-II] | 0.07557 | 0.02708 | 0.1037 | −0.1455 | −0.1886 |  |  | TNBCType train ([1]; subtype (IM, MSL or M) with which compound sensitivity is negatively correlated, training cell set (371 cell lines)): MSL
